Data from patent EP2266530A1, “Oxazolidinones for cosmetic cutaneous use” (Laboratoires Expanscience, priority 2002, dated 2004).

What was measured:
cellules de Langerhans = assay: Migration of freshly isolated, DNSB-sensitised Langerhans cells through Matrigel in a two-compartment culture chamber; settings: for inhibition de la migration des CL induite par le DNSB (result in words): compound 1 µM
Method: Des suspensions de cellules épidermiques ont été obtenues par traitement enzymatique (0,05% trypsine, pendant 18h à +4°C) de fragments de peau humaine normale issus de chirurgie plastique. Les suspensions obtenues contiennent en moyenne 2 à 4% de CL. L'obtention de suspensions contenant en moyenne 70% de CL est basée sur le principe de la centrifugation sur gradient de densité (Lymphoprep™) et élimination des kératinocytes.
Le milieu de base choisi pour l'ensemble de l'étude a été le RPMI 1640 (Gibco BRL, France).
On a utilisé comme agent sensibilisateur le DNSB (Sigma Aldrich), forme soluble du DNCB (dinitro-chloro-benzène), solubilisé en RPMI-BSA et utilisé à la concentration de 50 µM.
Un système de chambre de culture à deux compartiments (Falcon, Becton Dickinson, France) a été utilisé. Le compartiment supérieur est séparé du compartiment inférieur par une membrane de porosité 8 µm, sur laquelle sont déposées 50 µg/cm^2 de Matrigel. La membrane est alors recouverte de protéines formant un film équivalent à une membrane basale (laminine, collagène IV, nidogène, entactine, héparane sulfate protéoglycanes). Les cellules reprises dans le milieu RPMI-BSA seul ou en présence des différents produits sont déposées dans le compartiment supérieur. Dans le compartiment inférieur, est ajouté du surnageant de culture de fibroblastes humains normaux. Après 18h d'incubation à 37°C, le nombre de cellules vivantes ayant traversé le Matrigel et se trouvant dans le compartiment inférieur est compté sous microscope (les CL sont facilement identifiables par leur forme dendritique). Chaque essai est réalisé en triplicate.
Dans l'expression des résultats, la capacité migratoire des CL contrôle (non traitées et non sensibilisées) est arbitrairement fixée à 1.

cellules dendritiques = assay: FITC-induced migration of dendritic cells from ear skin to draining lymph nodes in mice (flow cytometry); assay type: in vivo, souris
From the text: Le FITC (Fluorescéine isothiocyanate, Sigma, St. Louis, MO) a été dilué extemporanément dans un mélange acétone : dibutylphthalate (1:1).
L'oxazolidinone B et le LU105 (LU 105 est un inhibiteur de MMPs, correspondant à un extrait peptidique de lupin blanc commercialisé par la Société Expanscience sous le nom de marque Actimp 193®) ont été fournis par les "Laboratoires Expanscience", et formulés seuls ou en association dans un véhicule inerte compatible avec une application topique, tel que décrit à l'exemple 1 ci-dessus [oxazolidinone B (0,5%) ± LU105 (2%)]. Les différentes formulations ont été appliquées sur les oreilles de souris deux fois par jour pendant 4 jours consécutifs. Trois heures après la dernière application, 1,5% de FITC sont appliqués sur les deux oreilles (l'une traitée et l'autre non traitée (Contrôle)).
L'effet des deux molécules a été évalué in vivo chez la souris. La peau des deux oreilles est badigeonnée avec 1,5% FITC (2X5 µl). 24 h après, les souris sont sacrifiées et une suspension cellulaire est préparée à partir des ganglions auriculaires et cervicaux (ganglions drainants, ci-après dénommés GL) ou à partir des ganglions popliteaux (ganglions non drainants, contrôle négatif). Les tissus ont été découpés et les cellules sont séparées par filtration (filtre […], Falcon; Becton Dickinson), puis lavés. […]

Compound: O=[N+]([O-])c1ccc(S(=O)(=O)O)c([N+](=O)[O-])c1 [DNSB, reference compound]
- stimulation de la migration des CL par rapport aux cellules contrôle (cellules de Langerhans; Example 3, DNSB 50 µM alone): +113%
- Index de migration (cellules de Langerhans; Example 4, cells sensitised with DNSB alone, control cells = 1): 1,78

Compound: CCCCCCCCCCCCC1COC(=O)N1 (centres unmarked) [oxazolidinone A, 4-dodécyl-oxazolidin-2-one]
- inhibition de la migration des CL induite par le DNSB (result in words) (cellules de Langerhans; Example 3): inhibent de manière significative

Compound: CCCCCCCCCCCCC1NC(=O)OC1CCCCCCCCCCCC (centres unmarked) [oxazolidinone B, 4,5-didodécyl-oxazolidin-2-one]
- inhibition de la migration des CL induite par le DNSB (result in words) (cellules de Langerhans; Example 3): inhibent de manière significative
- inhibition de la migration des CL sensibilisées (result in words) (cellules de Langerhans; Example 4, tested separately): inhibent de manière significative
- Inhibition de la migration en % (cellules dendritiques; 0,5% topical on mouse ears, twice daily for 4 days, FITC 1,5%, read 24 h later): 28%
- inhibition de la migration des CD vers les GL (result in words) (cellules dendritiques; mice sensitised with FITC, oxazolidinone B alone): inhibe de manière significative

Compound: CCCCCCCCCCCCC1COC(=O)N1CCCCCCCCCCCC (centres unmarked) [oxazolidinone C, 3,4-didodécyl-oxazolidin-2-one]
- inhibition de la migration des CL induite par le DNSB (result in words) (cellules de Langerhans; Example 3): inhibent de manière significative
